This is an account of results in patent US8546376B2, “Pharmaceutical compounds” (Almac Discovery Limited, priority 2009, dated 2013).

Each structure is given as a SMILES string. pIC50: −log10 of the molar value. Structures can show the parent of a compound that is named as a salt.

Common to all, as to assay type: biochemical
The target of one assay is T1, AKT1 (Homo sapiens, UniProt P31749).
T1 construct: purchased SignalChem
Kind of assay: AKT Kinase Assay (IMAP fluorescent polarisation) vs AKT1. The settings on record: activated AKT1, FAM Crosstide substrate. As to the method: (§1) Testing of the compounds was performed using an AKT Kinase Assay:
(§2) Activated AKT isoforms 1, 2 and 3 were assayed utilising a 5′ FAM Crosstide (Seq. GRPRTSSFAEG-OH). The extent of kinase phosphorylation was determined by fluorescent polarisation using IMAP progressive binding reagent, which introduces binding beads which allow the reagent to specifically bind to phosphate residues via covalent co-ordination complex bonds.
(§3) iMAP binding solution stops Crosstide/kinase interaction and specifically binds phosphorylated substrates. The degree of phosphorylation is determined by fluorescent polarisation (excitation 485 nm; emission 528 nm) or the reduction in speed of rotation of the excited substrate.
(§4) The following materials were used in the assay: • a) Activated AKT isoforms (SignalChem.) dissolved in Complete Reaction buffer at a pre-determined concentration selected so that the assay was carried out in the linear range. • b) AKT substrate peptide: FAM Crosstide (R7110) Molecular Devices, diluted in complete reaction buffer. • c) iMAP Progressive Screening Express Kit (R8127) Molecular Devices • d) Complete Reaction Buffer containing 0.1% BSA, 10 mM Tris-HCl, 10 mM MgCl2, 0.05% NaN3 and 0.01% phosphate free BSA, 1 mM DTT • e) Progressive Binding Solution containing 75% Buffer A, 25% Buffer B and low volume Binding Reagent which contains the binding entity for the assay • f) ATP diluted in complete reaction buffer • g) Black polystyrene 384 well assay plates (Nunc). • h) Biotek Synergy 4 Hybrid Plate reader.
(§5) 5 μl of test compound was dissolved in DMSO (Sigma Aldrich) and serially diluted in complete reaction buffer to give a fourteen point half log dose response and plated into 384 well black plates. The compound was incubated at room temperature with activated AKT isoform (5 μl) at the pre-determined concentration, for 45 minutes.
(§6) 2.5 μl of ATP solution mixed with 2.5 μl of AKT substrate peptide (FAM Crosstide (R7110) Molecular Devices) were dispensed into each well and the plate centrifuged at 1000 rpm for 20 seconds to ensure homogenous mixing of reagents. The reaction mix was incubated in the dark for one hour at room temperature.
(§7) The kinase reaction was stopped by the addition of Progressive Binding Solution and the mixture allowed to equilibrate for one hour in the dark, at room temperature.
(§8) The fluorescent polarisation generated in each well was determined using a […] Synergy 4 Hybrid plate reader. In brief, each reaction solution was excited at 485 nm with the emission measured at 528 nm in both the parallel and perpendicular pathway.
(§9) The polarisation value generated in each well was calculated by Gen5 software (Biotek) and the % inhibition of kinase activity compared to vehicle control was calculated via GraphPad Prism. IC50 values for each compound were calculated by non-linear regression analysis using Prism software.
(§10) All plates were internally controlled by two methods. Firstly, by calculating the signal:noise ratio; based on kinase polarisation without inhibitor and polarisation generated by complete reaction buffer in the absence of activated kinase. Secondly by determining IC50 values generated by known inhibitors of the AKT isoforms.

The target of a further assay is T2, AKT2 (Homo sapiens, UniProt P31751).
T2 construct: purchased SignalChem
Kind of assay: AKT Kinase Assay (IMAP fluorescent polarisation) vs AKT2. The conditions noted are these: activated AKT2, FAM Crosstide substrate. The procedure: as §1, §2, §3, §4, §5, §6, §7, §8, §9, §10

A further assay addresses T3, AKT3 (Homo sapiens, UniProt Q9Y243).
T3 construct: purchased SignalChem
Kind of assay: AKT Kinase Assay (IMAP fluorescent polarisation) vs AKT3. The settings on record: activated AKT3, FAM Crosstide substrate. The procedure: as §1, §2, §3, §4, §5, §6, §7, §8, §9, §10

T3 sequence (Q9Y243 whole entry): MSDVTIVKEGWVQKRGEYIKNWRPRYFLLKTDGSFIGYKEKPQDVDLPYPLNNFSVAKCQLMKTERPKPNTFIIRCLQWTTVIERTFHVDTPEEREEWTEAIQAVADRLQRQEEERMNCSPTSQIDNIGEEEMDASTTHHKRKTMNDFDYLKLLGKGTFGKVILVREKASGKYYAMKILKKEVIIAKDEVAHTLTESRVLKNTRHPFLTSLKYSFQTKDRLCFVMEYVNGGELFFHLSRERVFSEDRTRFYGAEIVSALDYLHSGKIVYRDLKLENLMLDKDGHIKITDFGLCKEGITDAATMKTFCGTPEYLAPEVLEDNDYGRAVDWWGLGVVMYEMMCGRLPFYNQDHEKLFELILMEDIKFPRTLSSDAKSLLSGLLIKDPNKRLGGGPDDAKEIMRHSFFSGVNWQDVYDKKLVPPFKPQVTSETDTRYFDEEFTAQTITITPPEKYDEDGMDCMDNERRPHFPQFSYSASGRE
T2 sequence (P31751 whole entry): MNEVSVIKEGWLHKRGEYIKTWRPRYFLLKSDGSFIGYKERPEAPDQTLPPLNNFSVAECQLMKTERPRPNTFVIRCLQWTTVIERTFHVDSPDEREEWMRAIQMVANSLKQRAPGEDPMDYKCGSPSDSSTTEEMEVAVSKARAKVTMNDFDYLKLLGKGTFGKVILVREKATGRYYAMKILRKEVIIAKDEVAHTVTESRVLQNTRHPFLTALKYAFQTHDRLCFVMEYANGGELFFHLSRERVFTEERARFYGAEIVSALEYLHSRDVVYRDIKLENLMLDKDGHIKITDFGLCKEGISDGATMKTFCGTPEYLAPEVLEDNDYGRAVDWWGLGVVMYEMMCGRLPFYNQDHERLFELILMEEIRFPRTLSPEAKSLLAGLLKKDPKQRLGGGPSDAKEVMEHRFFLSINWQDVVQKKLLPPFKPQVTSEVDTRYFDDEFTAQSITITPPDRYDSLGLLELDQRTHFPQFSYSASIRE
T1 sequence (P31749 whole entry): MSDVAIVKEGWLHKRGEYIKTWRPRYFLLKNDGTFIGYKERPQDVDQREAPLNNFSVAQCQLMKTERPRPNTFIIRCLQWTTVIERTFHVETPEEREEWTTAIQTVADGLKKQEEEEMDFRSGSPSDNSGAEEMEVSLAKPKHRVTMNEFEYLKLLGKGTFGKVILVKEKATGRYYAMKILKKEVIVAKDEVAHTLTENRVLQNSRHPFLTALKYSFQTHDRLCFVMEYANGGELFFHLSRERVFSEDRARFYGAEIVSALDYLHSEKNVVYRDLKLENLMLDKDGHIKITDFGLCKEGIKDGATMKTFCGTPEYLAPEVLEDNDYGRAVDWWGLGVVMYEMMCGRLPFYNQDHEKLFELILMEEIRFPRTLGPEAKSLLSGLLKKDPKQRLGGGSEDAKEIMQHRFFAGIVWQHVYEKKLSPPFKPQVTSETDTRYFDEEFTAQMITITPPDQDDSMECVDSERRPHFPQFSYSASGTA

A word on the pIC50: it is the IC50 on a negative log10 scale, so that one unit is a factor of ten. As for `NC1(c2ccc(-c3c(-c4ccccc4)oc4c(C5CC5)cccc4c3=O)cc2)CCC1` [Example 54, 3-[4-(1-Amino-cyclobutyl)-phenyl]-8-cyclopropyl-2-phenyl-chromen-4-one hydrochloride], the pIC50 at AKT1 is at least 6.00; at AKT2, at least 6.00; at AKT3, 5.00 to 6.00.
As to `Cn1cc(-c2cccc3c(=O)c(-c4ccc(C5(N)CCC5)cc4)c(-c4ccccc4)oc23)cn1` [Example 55, 3-[4-(1-Amino-cyclobutyl)-phenyl]-8-(1-methyl-1H-pyrazol-4-yl)-2-phenyl-chromen-4-one hydrochloride], the results for the pIC50 at AKT1, on AKT2 and at AKT3 were at least 6.00, at least 6.00 and 5.00 to 6.00, respectively.
Regarding `NC1(c2ccc(-c3c(-c4ccccc4)oc4c(-c5cccnc5)cccc4c3=O)cc2)CCC1` [Example 56, 3-[4-(1-Amino-cyclobutyl)-phenyl]-2-phenyl-8-pyridin-3-yl-chromen-4-one], the pIC50 on AKT1 is at least 6.00; on AKT2, at least 6.00; on AKT3, 5.00 to 6.00.
Turning to `NC1(c2ccc(-c3c(-c4ccccc4)oc4c(ccc5cn[nH]c54)c3=O)cc2)CCC1` [Example 57, 7-[4-(1-Amino-cyclobutyl)-phenyl]-8-phenyl-1H-9-oxa-1,2-diaza-cyclopenta[a]naphthalen-6-one], the pIC50 on AKT1 is at least 6.00; at AKT2, at least 6.00; on AKT3 it was 5.00 to 6.00.
In the case of `Cn1ncc2ccc3c(=O)c(-c4ccc(C5(N)CCC5)cc4)c(-c4ccccc4)oc3c21` [Example 58, 7-[4-(1-Amino-cyclobutyl)-phenyl]-1-methyl-8-phenyl-1H-9-oxa-1,2-diaza-cyclopenta[a]naphthalen-6-one], the pIC50 is at least 6.00 at AKT1, at least 6.00 at AKT2 and 5.00 to 6.00 at AKT3.
As to `Cn1cc2ccc3c(=O)c(-c4ccc(C5(N)CCC5)cc4)c(-c4ccccc4)oc3c2n1` [Example 59, 7-[4-(1-Amino-cyclobutyl)-phenyl]-2-methyl-8-phenyl-2H-9-oxa-1,2-diaza-cyclopenta[a]naphthalen-6-one], the figures for the pIC50 at AKT1, on AKT2 and at AKT3 were at least 6.00, at least 6.00 and 5.00 to 6.00, respectively.
For the compound `Cn1ncc2c3oc(-c4ccccc4)c(-c4ccc(C5(N)CCC5)cc4)c(=O)c3ccc21` [Example 60, 3-[4-(1-Amino-cyclobutyl)-phenyl]-7-methyl-2-phenyl-7H-pyrano[2,3-e]indazol-4-one], the pIC50 is at least 6.00 on AKT1, at least 6.00 at AKT2 and 5.00 to 6.00 at AKT3.
In the case of `Cn1cc2c(ccc3c(=O)c(-c4ccc(C5(N)CCC5)cc4)c(-c4ccccc4)oc32)n1` [Example 61, 3-[4-(1-Amino-cyclobutyl)-phenyl]-8-methyl-2-phenyl-8H-pyrano[2,3-e]indazol-4-one], the pIC50 was at least 6.00 at AKT1, at least 6.00 at AKT2 and 5.00 to 6.00 on AKT3.
Take `Cn1cnc2c3oc(-c4ccccc4)c(-c4ccc(C5(N)CCC5)cc4)c(=O)c3cc(Cl)c21` [Example 62, 7-[4-(1-Amino-cyclobutyl)-phenyl]-4-chloro-3-methyl-8-phenyl-3H-chromeno[7,8-d]imidazol-6-one hydrochloride]: the pIC50 at AKT1, on AKT2 and at AKT3 was at least 6.00 in each case.
With `NC1(c2ccc(-c3c(-c4ccccc4)oc4c(ccn5c(=O)[nH]nc45)c3=O)cc2)CCC1` [Example 63, 7-[4-(1-Amino-cyclobutyl)-phenyl]-8-phenyl-2H-9-oxa-1,2,3a-triaza-cyclopenta[a]naphthalene-3,6-dione hydrochloride], the pIC50 at AKT1, on AKT2 and on AKT3 was at least 6.00 throughout.
On to `Cn1nc2c3oc(-c4ccccc4)c(-c4ccc(C5(N)CCC5)cc4)c(=O)c3ccn2c1=O` [Example 64, 7-[4-(1-Amino-cyclobutyl)-phenyl]-2-methyl-8-phenyl-2H-9-oxa-1,2,3a-triaza-cyclopenta[a]naphthalene-3,6-dione hydrochloride], for which the pIC50 on AKT1, on AKT2 and at AKT3 was at least 6.00 throughout.
For `NC1(c2ccc(-c3c(-c4ccccc4)oc4ccccc4c3=S)cc2)CCC1` [Example 65, 3-[4-(1-Amino-cyclobutyl)-phenyl]-2-phenyl-chromene-4-thione hydrochloride], the pIC50 at AKT1, on AKT2 and at AKT3 was 5.00 to 6.00 each time.
Consider `CON=c1c(-c2ccc(C3(N)CCC3)cc2)c(-c2ccccc2)oc2ccccc12` [Example 66, 3-[4-(1-Amino-cyclobutyl)-phenyl]-2-phenyl-chromen-4-one O-methyl-oxime], for which the pIC50 at AKT1 was at least 6.00; on AKT2, 5.00 to 6.00; at AKT3, under 5.00.
With `NC1(c2ccc(-c3c(-c4ccccc4)oc4c(Br)cccc4c3=O)cc2)COC1` [Example 67, 3-[4-(3-Amino-oxetan-3-yl)-phenyl]-8-bromo-2-phenyl-chromen-4-one], the negative-log IC50 (pIC50) was at least 6.00 on AKT1, under 5.00 on AKT2 and under 5.00 on AKT3.
As to `NC1(c2ccc(-c3c(-c4ccccc4)oc4c(ccn5c(=O)[nH]nc45)c3=O)cc2)COC1` [Example 68, 7-[4-(3-Amino-oxetan-3-yl)-phenyl]-8-phenyl-2H-9-oxa-1,2,3a-triaza-cyclopenta[a]naphthalene-3,6-dione], the figures for the pIC50 on AKT1, at AKT2 and on AKT3 were at least 6.00, 5.00 to 6.00 and under 5.00, respectively.
Regarding `NC1(c2ccc(-c3c(-c4ccccc4)oc4c(ccn5c(=O)[nH]nc45)c3=O)cn2)CCC1` [Example 69, 7-[6-(1-Amino-cyclobutyl)-pyridin-3-yl]-8-phenyl-2H-9-oxa-1,2,3a-triaza-cyclopenta[a]naphthalene-3,6-dione], the pIC50 at AKT1 is at least 6.00; at AKT2 it was 5.00 to 6.00; on AKT3 it was under 5.00.
For `CC(C)(C#N)c1ccc(-c2c(-c3ccccc3)oc3c(ccn4c(=O)[nH]nc34)c2=O)cc1` [Example 70, 2-[4-(3,6-Dioxo-8-phenyl-2,6-dihydro-3H-9-oxa-1,2,3a-triaza-cyclopenta[a]naphthalen-7-yl)-phenyl]-2-methyl-propionitrile], the pIC50 is at least 6.00 on AKT1, under 5.00 on AKT2 and under 5.00 on AKT3.
`Cn1ncc2ccc3c(=O)c(-c4ccc(C5(N)CCC5)nc4)c(-c4ccccc4)oc3c21` [Example 71, 7-[6-(1-Amino-cyclobutyl)-pyridin-3-yl]-1-methyl-8-phenyl-1H-9-oxa-1,2-diaza-cyclopenta[a]naphthalen-6-one hydrochloride]: the pIC50 is at least 6.00 on AKT1, under 5.00 on AKT2 and under 5.00 on AKT3.
Take `NC1(c2ccc(-c3c(-c4ccccc4)oc4c(N5CCOCC5)cccc4c3=O)cc2)CCC1` [Example 72, 3-[4-(1-Amino-cyclobutyl)-phenyl]-8-morpholin-4-yl-2-phenyl-chromen-4-one hydrochloride]: the pIC50 was at least 6.00 at AKT1, 5.00 to 6.00 at AKT2 and under 5.00 at AKT3.
Take `Cc1n[nH]cc1-c1cccc2c(=O)c(-c3ccc(C4(N)CCC4)cc3)c(-c3ccccc3)oc12` [Example 73, 3-[4-(1-Amino-cyclobutyl)-phenyl]-8-(3-methyl-1H-pyrazol-4-yl)-2-phenyl-chromen-4-one hydrochloride]: the pIC50 at AKT1 is at least 6.00; at AKT2 it was at least 6.00; on AKT3, 5.00 to 6.00.
On to `NC1(c2ccc(-c3c(-c4ccccc4)oc4c(-n5ccnc5)cccc4c3=O)cc2)CCC1` [Example 74, 3-[4-(1-Amino-cyclobutyl)-phenyl]-8-imidazol-1-yl-2-phenyl-chromen-4-one hydrochloride], for which the pIC50 at AKT1 was at least 6.00; at AKT2, at least 6.00; at AKT3, 5.00 to 6.00.
For the compound `Cc1c(-c2cccc3c(=O)c(-c4ccc(C5(N)CCC5)cc4)c(-c4ccccc4)oc23)cnn1C` [Example 75, 3-[4-(1-Amino-cyclobutyl)-phenyl]-8-(1,5-dimethyl-1H-pyrazol-4-yl)-2-phenyl-chromen-4-one hydrochloride], the pIC50 on AKT1 is at least 6.00; on AKT2 it was at least 6.00; at AKT3, 5.00 to 6.00.
